# Assay results taken from ChEMBL document CHEMBL1806429, “Angiotensin-I-converting enzyme inhibitory peptides: Chemical feature based pharmacophore generation” (Eur J Med Chem, 2011).
# Residues, ends and D or L forms follow the SMILES beside them.
# Biological target: T1, Angiotensin-converting enzyme (Oryctolagus cuniculus, UniProt P12822)
# T1 sequence (P12822 whole entry): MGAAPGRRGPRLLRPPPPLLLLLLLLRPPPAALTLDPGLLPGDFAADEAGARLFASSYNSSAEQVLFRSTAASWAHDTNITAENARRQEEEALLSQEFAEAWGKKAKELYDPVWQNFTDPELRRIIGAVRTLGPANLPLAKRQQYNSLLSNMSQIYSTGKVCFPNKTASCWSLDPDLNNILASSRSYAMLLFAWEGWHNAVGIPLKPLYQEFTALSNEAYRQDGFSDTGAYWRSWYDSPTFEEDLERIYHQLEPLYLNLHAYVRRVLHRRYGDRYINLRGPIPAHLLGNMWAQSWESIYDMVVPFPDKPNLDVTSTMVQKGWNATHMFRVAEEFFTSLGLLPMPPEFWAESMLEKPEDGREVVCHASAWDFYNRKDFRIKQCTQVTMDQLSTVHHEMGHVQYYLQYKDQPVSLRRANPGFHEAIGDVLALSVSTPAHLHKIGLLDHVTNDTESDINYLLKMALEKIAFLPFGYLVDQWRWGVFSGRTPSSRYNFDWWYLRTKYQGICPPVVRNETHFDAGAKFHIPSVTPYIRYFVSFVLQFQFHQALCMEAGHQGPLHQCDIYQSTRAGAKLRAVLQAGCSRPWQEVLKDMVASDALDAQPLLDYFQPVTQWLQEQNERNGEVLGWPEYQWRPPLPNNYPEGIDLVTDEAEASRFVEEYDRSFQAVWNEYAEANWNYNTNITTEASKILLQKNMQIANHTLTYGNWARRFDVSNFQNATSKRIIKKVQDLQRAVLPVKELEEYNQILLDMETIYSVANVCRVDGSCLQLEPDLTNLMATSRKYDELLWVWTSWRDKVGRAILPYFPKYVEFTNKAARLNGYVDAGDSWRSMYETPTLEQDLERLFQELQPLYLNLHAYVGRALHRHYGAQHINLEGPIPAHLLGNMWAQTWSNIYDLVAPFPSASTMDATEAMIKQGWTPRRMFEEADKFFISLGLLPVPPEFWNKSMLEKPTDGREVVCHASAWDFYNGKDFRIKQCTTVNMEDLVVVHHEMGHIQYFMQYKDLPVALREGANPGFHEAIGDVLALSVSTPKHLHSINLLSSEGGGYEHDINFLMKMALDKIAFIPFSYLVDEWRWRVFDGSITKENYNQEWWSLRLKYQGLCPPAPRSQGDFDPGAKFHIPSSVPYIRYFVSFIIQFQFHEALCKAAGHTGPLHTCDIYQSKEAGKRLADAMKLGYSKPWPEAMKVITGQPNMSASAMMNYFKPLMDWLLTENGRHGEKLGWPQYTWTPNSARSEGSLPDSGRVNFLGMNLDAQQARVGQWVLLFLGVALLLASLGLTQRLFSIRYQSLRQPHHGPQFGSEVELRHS
# Test: Inhibition of rabbit lung ACE preincubated for 5 mins by spectrophotometric assay
row,SMILES,IC50
1,C[C@H](N)C(=O)NCC(=O)O (H-Ala-Gly-OH),2500 µM
2,C[C@H](N)C(=O)N[C@@H](Cc1c[nH]cn1)C(=O)O (H-Ala-His-OH),9000 µM
3,CC(C)[C@H](NC(=O)[C@H](C)N)C(=O)O (H-Ala-Val-OH),300 µM
4,CC(C)[C@H](NC(=O)[C@H](C)N)C(=O)N1CCC[C@H]1C(=O)O (H-Ala-Val-Pro-OH),340 µM
5,NC(N)=NCCC[C@H](N)C(=O)N[C@@H](CO)C(=O)N1CCC[C@H]1C(=O)O (H-Arg-Ser-Pro-OH),248 µM
6,NCC(=O)N[C@@H](CCC(=O)O)C(=O)O (H-Gly-Glu-OH),5400 µM
7,NCCCC[C@H](NC(=O)CN)C(=O)O (H-Gly-Lys-OH),5400 µM
8,CC[C@H](C)[C@H](N)C(=O)N1CCC[C@H]1C(=O)O (H-Ile-Pro-OH),150 µM
9,NCCCC[C@H](NC(=O)CNC(=O)[C@@H](N)Cc1ccccc1)C(=O)O (H-Phe-Gly-Lys-OH),160 µM
10,N[C@@H](Cc1ccccc1)C(=O)N1CCC[C@H]1C(=O)O (H-Phe-Pro-OH),210 µM
11,O=C(NCC(=O)N1CCC[C@H]1C(=O)O)[C@@H]1CCCN1 (H-Pro-Gly-Pro-OH),97.3 µM
12,CC(C)C[C@H](NC(=O)[C@@H]1CCCN1C(=O)[C@@H]1CCCN1)C(=O)O (H-Pro-Pro-Leu-OH),427 µM
13,O=C(N[C@@H](Cc1ccc(O)cc1)C(=O)N1CCC[C@H]1C(=O)O)[C@@H]1CCCN1 (H-Pro-Tyr-Pro-OH),220 µM
14,N[C@@H](Cc1ccc(O)cc1)C(=O)N1CCC[C@H]1C(=O)O (H-Tyr-Pro-OH),720 µM

# Molecules with a lower IC50, results first:
row,IC50,SMILES
1,16 µM,C[C@H](NC(=O)[C@@H](N)CCCNC(=N)N)C(=O)N1CCC[C@H]1C(=O)O (H-Arg-Ala-Pro-OH)
2,10 µM,CC(C)[C@H](NC(=O)[C@@H](N)Cc1ccccc1)C(=O)N[C@@H](C)C(=O)N1CCC[C@H]1C(=O)O (H-FVAP-OH)
3,3.7 µM,CC[C@H](C)[C@H](N)C(=O)N[C@@H](Cc1ccc(O)cc1)C(=O)O (H-Ile-Tyr-OH)
4,0.7 µM,CC(C)C[C@H](N)C(=O)N[C@@H](C)C(=O)N1CCC[C@H]1C(=O)O (H-Leu-Ala-Pro-OH)
5,81 µM,CC(C)C[C@H](N)C(=O)N[C@@H](CC(N)=O)C(=O)N[C@@H](Cc1ccc(O)cc1)C(=O)O (H-Leu-Asn-Tyr-OH)
6,0.32 µM,CC(C)C[C@H](N)C(=O)N[C@@H](CCCCN)C(=O)N1CCC[C@H]1C(=O)O (H-Leu-Lys-Pro-OH)
7,78 µM,N[C@@H](Cc1ccccc1)C(=O)N1CCC[C@H]1C(=O)N1CCC[C@H]1C(=O)O (H-Phe-Pro-Pro-OH)
8,36 µM,CC(C)C[C@H](NC(=O)[C@@H]1CCCN1)C(=O)N[C@@H](Cc1c[nH]c2ccccc12)C(=O)O (H-Pro-Leu-Trp-OH)
9,2 µM,CC(C)[C@H](N)C(=O)N[C@@H](C)C(=O)N1CCC[C@H]1C(=O)O (H-Val-Ala-Pro-OH)
10,7 µM,CC(C)[C@H](N)C(=O)N[C@@H](Cc1ccc(O)cc1)C(=O)O (H-Val-Tyr-OH)
